Measured values as given in patent publication US6552196B2, “Quinolone carboxylic acid derivatives” (Dong Wha Pharmaceutical Industrial Co., Ltd., priority 1997, dated 2003).

Assays:
Assay type in all cases: cell-based
[1] = system: Staphylococcus aureus 293; assay: In vitro antibacterial activity against resistant strains (MIC); conditions: resistant strain Staphylococcus aureus 293; 2-fold agar dilution; methicillin resistant strains 48 hours at 30° C.
How it was run: (§1)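 Hoechst standard bacteria, […], were cultured at 37 °C for 18 h prior to measuring activity; resistant (methicillin) strains were cultivated longer, 48 h, and cooler, at 30 °C.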

[2] = system: Staphylococcus aureus 256E; assay: as above; conditions: resistant strain Staphylococcus aureus 256E; 2-fold agar dilution; methicillin resistant strains 48 hours at 30° C.
How it was run: as §1

[3] = system: Staphylococcus aureus 241; assay: as above; conditions: resistant strain Staphylococcus aureus 241; 2-fold agar dilution; methicillin resistant strains 48 hours at 30° C.
How it was run: as §1

[4] = system: Staphylococcus aureus 88E; assay: as above; conditions: resistant strain Staphylococcus aureus 88E; 2-fold agar dilution; methicillin resistant strains 48 hours at 30° C.
How it was run: as §1

[5] = system: Staphylococcus aureus 694E; assay: as above; conditions: resistant strain Staphylococcus aureus 694E; 2-fold agar dilution; methicillin resistant strains 48 hours at 30° C.
How it was run: as §1

[6] = system: Staphylococcus aureus 179; assay: as above; conditions: resistant strain Staphylococcus aureus 179; 2-fold agar dilution; methicillin resistant strains 48 hours at 30° C.
How it was run: as §1

[7] = system: Staphylococcus aureus 697E; assay: as above; conditions: resistant strain Staphylococcus aureus 697E; 2-fold agar dilution; methicillin resistant strains 48 hours at 30° C.
How it was run: as §1

[8] = system: Staphylococcus epidermidis 291; assay: as above; conditions: resistant strain Staphylococcus epidermidis 291; 2-fold agar dilution; methicillin resistant strains 48 hours at 30° C.
How it was run: as §1

[9] = system: Staphylococcus aureus 692E; assay: as above; conditions: resistant strain Staphylococcus aureus 692E; 2-fold agar dilution; methicillin resistant strains 48 hours at 30° C.
How it was run: as §1

[10] = system: Staphylococcus aureus 703E; assay: as above; conditions: resistant strain Staphylococcus aureus 703E; 2-fold agar dilution; methicillin resistant strains 48 hours at 30° C.
How it was run: as §1

[11] = system: Staphylococcus aureus 208E; assay: as above; conditions: resistant strain Staphylococcus aureus 208E; 2-fold agar dilution; methicillin resistant strains 48 hours at 30° C.
How it was run: as §1

[12] = system: Staphylococcus epidermidis 178; assay: as above; conditions: resistant strain Staphylococcus epidermidis 178; 2-fold agar dilution; methicillin resistant strains 48 hours at 30° C.
How it was run: as §1

[13] = system: Staphylococcus aureus 701E; assay: as above; conditions: resistant strain Staphylococcus aureus 701E; 2-fold agar dilution; methicillin resistant strains 48 hours at 30° C.
How it was run: as §1

[14] = system: Staphylococcus aureus 8236; assay: as above; conditions: resistant strain Staphylococcus aureus 8236; 2-fold agar dilution; methicillin resistant strains 48 hours at 30° C.
How it was run: as §1

[15] = system: Staphylococcus aureus 690E; assay: as above; conditions: resistant strain Staphylococcus aureus 690E; 2-fold agar dilution; methicillin resistant strains 48 hours at 30° C.
How it was run: as §1

[16] = system: Staphylococcus aureus 303; assay: as above; conditions: resistant strain Staphylococcus aureus 303; 2-fold agar dilution; methicillin resistant strains 48 hours at 30° C.
How it was run: as §1

[17] = system: Staphylococcus aureus 695E; assay: as above; conditions: resistant strain Staphylococcus aureus 695E; 2-fold agar dilution; methicillin resistant strains 48 hours at 30° C.
How it was run: as §1

[18] = system: Staphylococcus aureus 693E; assay: as above; conditions: resistant strain Staphylococcus aureus 693E; 2-fold agar dilution; methicillin resistant strains 48 hours at 30° C.
How it was run: as §1

[19] = system: Staphylococcus aureus 121E; assay: as above; conditions: resistant strain Staphylococcus aureus 121E; 2-fold agar dilution; methicillin resistant strains 48 hours at 30° C.
How it was run: as §1

[20] = system: Klebsiella aerogenes 1522E; assay: In vitro antibacterial activity (MIC), agar dilution; conditions: 2-fold agar dilution, Muller-Hinton agar, 18 hours at 37° C.
How it was run: as §1

[21] = system: Staphylococcus aureus 285; assay: as above; conditions: 2-fold agar dilution, Muller-Hinton agar, 18 hours at 37° C.
How it was run: as §1

Klebsiella oxytoca 1082E = assay: as above; conditions: 2-fold agar dilution, Muller-Hinton agar, 18 hours at 37° C.
How it was run: as §1

[22] = system: Pseudomonas aeruginosa 1592E; assay: as above; conditions: 2-fold agar dilution, Muller-Hinton agar, 18 hours at 37° C.
How it was run: as §1

[23] = system: Pseudomonas aeruginosa 1771M; assay: as above; conditions: Pseudomonas aeruginosa 1771M; 2-fold agar dilution, Muller-Hinton agar, 18 hours at 37° C.
How it was run: as §1

Esherichia coli DC0 = assay: as above; conditions: 2-fold agar dilution, Muller-Hinton agar, 18 hours at 37° C.
How it was run: as §1

[24] = system: Pseudomonas aeruginosa 9027; assay: as above; conditions: 2-fold agar dilution, Muller-Hinton agar, 18 hours at 37° C.
How it was run: as §1

Salmonella typhimurium = assay: as above; conditions: 2-fold agar dilution, Muller-Hinton agar, 18 hours at 37° C.
How it was run: as §1

[25] = system: Streptococcus pyogens 77A; assay: as above; conditions: 2-fold agar dilution, Muller-Hinton agar, 18 hours at 37° C.
How it was run: as §1

Esherichia coli DC2 = assay: as above; conditions: 2-fold agar dilution, Muller-Hinton agar, 18 hours at 37° C.
How it was run: as §1

Esherichia coli 078 = assay: as above; conditions: 2-fold agar dilution, Muller-Hinton agar, 18 hours at 37° C.
How it was run: as §1

Esherichia coli 1507E = assay: as above; conditions: 2-fold agar dilution, Muller-Hinton agar, 18 hours at 37° C.
How it was run: as §1

[26] = system: Pseudomonas aeruginosa 1771; assay: as above; conditions: 2-fold agar dilution, Muller-Hinton agar, 18 hours at 37° C.
How it was run: as §1

[27] = system: Staphylococcus aureus SG511; assay: as above; conditions: 2-fold agar dilution, Muller-Hinton agar, 18 hours at 37° C.
How it was run: as §1

[28] = system: Staphylococcus aureus 503; assay: as above; conditions: 2-fold agar dilution, Muller-Hinton agar, 18 hours at 37° C.
How it was run: as §1

Enterobacter clocae P99 = assay: as above; conditions: 2-fold agar dilution, Muller-Hinton agar, 18 hours at 37° C.
How it was run: as §1

Esherichia coli TEM = assay: as above; conditions: 2-fold agar dilution, Muller-Hinton agar, 18 hours at 37° C.
How it was run: as §1

[29] = system: Streptococcus pyogens 308A; assay: as above; conditions: 2-fold agar dilution, Muller-Hinton agar, 18 hours at 37° C.
How it was run: as §1

[30] = system: Streptococcus faecium MD 8b; assay: as above; conditions: 2-fold agar dilution, Muller-Hinton agar, 18 hours at 37° C.
How it was run: as §1

[31] = system: Enterobacter clocae 1321E; assay: as above; conditions: 2-fold agar dilution, Muller-Hinton agar, 18 hours at 37° C.
How it was run: as §1

CON=C1CN(c2c(F)c(N)c3c(=O)c(C(=O)O)cn(C4CC4)c3c2F)CC12CNC2.CS(=O)(=O)O [Example 5, 1-Cyclopropyl-5-amino-6,8-difluoro-7-[8-(methoxyimino)-2,6-diazaspiro[3,41]oct-6-yl]-4-oxo-1,4-dihydro-3-quinolinecarboxylic acid methanesulfonate]
minimum inhibitory concentration (MIC) [1]: 98 ng/mL
minimum inhibitory concentration (MIC) [2]: 7 ng/mL
minimum inhibitory concentration (MIC) [3]: 98 ng/mL
minimum inhibitory concentration (MIC) [4]: 7 ng/mL
minimum inhibitory concentration (MIC) [5]: 7 ng/mL
minimum inhibitory concentration (MIC) [6]: 98 ng/mL
minimum inhibitory concentration (MIC) [7]: <2 ng/mL
minimum inhibitory concentration (MIC) [8]: 391 ng/mL
minimum inhibitory concentration (MIC) [9]: 4 ng/mL
minimum inhibitory concentration (MIC) [10]: 7 ng/mL
minimum inhibitory concentration (MIC) [11]: 7 ng/mL
minimum inhibitory concentration (MIC) [12]: 391 ng/mL
minimum inhibitory concentration (MIC) [13]: 7 ng/mL
minimum inhibitory concentration (MIC) [14]: 98 ng/mL
minimum inhibitory concentration (MIC) [15]: 7 ng/mL
minimum inhibitory concentration (MIC) [16]: 98 ng/mL
minimum inhibitory concentration (MIC) [17]: 7 ng/mL
minimum inhibitory concentration (MIC) [18]: 7 ng/mL
minimum inhibitory concentration (MIC) [19]: 13 ng/mL
minimum inhibitory concentration (MIC) [20]: 25 ng/mL
minimum inhibitory concentration (MIC) [21]: 7 ng/mL
minimum inhibitory concentration (MIC) (Klebsiella oxytoca 1082E): <2 ng/mL
minimum inhibitory concentration (MIC) [22]: 391 ng/mL
minimum inhibitory concentration (MIC) [23]: 195 ng/mL
minimum inhibitory concentration (MIC) (Esherichia coli DC0): 98 ng/mL
minimum inhibitory concentration (MIC) [24]: 781 ng/mL
minimum inhibitory concentration (MIC) (Salmonella typhimurium): <2 ng/mL
minimum inhibitory concentration (MIC) [25]: <2 ng/mL
minimum inhibitory concentration (MIC) (Esherichia coli DC2): 13 ng/mL
minimum inhibitory concentration (MIC) (Esherichia coli 078): <2 ng/mL
minimum inhibitory concentration (MIC) (Esherichia coli 1507E): 7 ng/mL
minimum inhibitory concentration (MIC) [26]: 391 ng/mL
minimum inhibitory concentration (MIC) [27]: <2 ng/mL
minimum inhibitory concentration (MIC) [28]: <2 ng/mL
minimum inhibitory concentration (MIC) (Enterobacter clocae P99): 7 ng/mL
minimum inhibitory concentration (MIC) (Esherichia coli TEM): 13 ng/mL
minimum inhibitory concentration (MIC) [29]: 25 ng/mL
minimum inhibitory concentration (MIC) [30]: 25 ng/mL
minimum inhibitory concentration (MIC) [31]: 4 ng/mL
